We go through four compounds from paper PMC6447767, “Simultaneous determination of the potent anti-tuberculosis regimen—Pyrazinamide, ethambutol, protionamide, clofazimine in beagle dog plasma using LC–MS/MS method coupled with 96-well format plate” (Journal of Pharmaceutical and Biomedical Analysis, 2019).

The conditions of data set [1]: beagle, dog.
Data set [2] can be described thus: Solubility in organic solvents noted during sample preparation.
Data set [3] can be described thus: Pharmacokinetic study of the PZA-EMB-PTO-CFZ combination after oral administration. The following applies: beagle, dog, plasma, in combination; for AUC: AUC0-τ, 0 to 24/48 h; for AUC / AUC(0-inf) / Cmax / half-life: n = 6; for AUC(0-inf): AUC0-∞; for Tmax: n = 6, mean ± S.D.
Data set [4] can be described thus: Stability of analytes in Beagle dog plasma (freeze-thaw, long-term, auto-sampler, bench-top). The following applies: for %Stability recoveries (Mean ± SD), Freeze-thaw (−80 °C) / %Stability recoveries (Mean ± SD), Bench-top 4 h (4 °C) / %Stability recoveries (Mean ± SD), Long-term 40 days (−80 °C) / Stability accuracy under the test conditions: Beagle dog plasma; for %Stability recoveries (Mean ± SD), Freeze-thaw (−80 °C): 3 freeze-thaw cycles; for %Stability recoveries (Mean ± SD), Freeze-thaw (−80 °C) / %Stability recoveries (Mean ± SD), Bench-top 4 h (4 °C) / %Stability recoveries (Mean ± SD), Long-term 40 days (−80 °C) / %Stability recoveries (Mean ± SD), Auto-sampler 27 h (18 °C): n = 3; for %Stability recoveries (Mean ± SD), Auto-sampler 27 h (18 °C): processed Beagle dog plasma samples; for Stability accuracy under the test conditions: summary over all stability conditions and QC levels.

A short description of another data set: in vivo. To be noted: beagle, dog, po.
[5] abbreviates: High Dose (double of standard dose).
Setting [6] is: Low Dose (half of standard dose).
The mark [7] stands for this setting: T1/2, High Dose (double of standard dose).
[8] abbreviates: T1/2, Low Dose (half of standard dose).
The mark [9] stands for this setting: T1/2, Medium Dose (standard dose).
Where [10] appears, read: Medium Dose (standard: PZA 93.2, EMB 20.7, PTO 15.5, CFZ 5.2 mg/kg).

Read-outs that look alike come from different tables or passages of the source.

With `CCCc1cc(C(N)=S)ccn1` [PTO, protionamide], the “Stability accuracy under the test conditions” value (“Stability accuracy” below) in data set [1] is on record as 86.6–113.2%.
Regarding `CC[C@@H](CO)NCCN[C@@H](CC)CO` [EMB, ethambutol], the Solubility in acetonitrile entry in data set [2] is on record as “poor solubility”. In addition, in data set [3] (setting [5]), the area under the curve (AUC) came to 58.7 ± 14.8 µg·h/mL, the AUC(0-inf) worked out at 59.2 ± 15 µg·h/mL, the Cmax turned out to be 21100 ± 4230 ng/mL and the Tmax was 0.92 ± 0.38 h. In addition, in data set [3] (setting [6]), the exposure (AUC) stood at 7.88 ± 1.22 µg·h/mL, the AUC(0-inf) is 7.98 ± 1.23 µg·h/mL, the Cmax is 2930 ± 890 ng/mL and the Tmax stood at 1.25 ± 0.94 h. In data set [3] (Medium Dose (standard dose)), the AUC came to 18.5 ± 2.35 µg·h/mL, the total exposure AUC(0-inf) turned out to be 18.7 ± 2.34 µg·h/mL and the Cmax was found to be 8720 ± 1150 ng/mL. The half-life in data set [3] (setting [7]) is 12 ± 0.62 h. Moreover, the half-life in data set [3] (setting [8]) is 11.8 ± 1.31 h. Moreover, the half-life in data set [3] (setting [9]) is 12.7 ± 1.88 h. The time of peak concentration (Tmax) in data set [3] (setting [10]) stood at 0.83 ± 0.2 h. Moreover, in data set [4] (HQC), the “%Stability recoveries (Mean ± SD), Freeze-thaw (−80 °C)” value was found to be 98.0 ± 2.6%; the “%Stability recoveries (Mean ± SD), Bench-top 4 h (4 °C)” value turned out to be 86.6 ± 0.9%; the “%Stability recoveries (Mean ± SD), Long-term 40 days (−80 °C)” value was found to be 101.8 ± 0.9%; the “%Stability recoveries (Mean ± SD), Auto-sampler 27 h (18 °C)” value is 94.0 ± 5.0%. For the same compound, in data set [4] (LQC), the “%Stability recoveries (Mean ± SD), Freeze-thaw (−80 °C)” value is listed as 106.6 ± 6.2%; the “%Stability recoveries (Mean ± SD), Bench-top 4 h (4 °C)” value is reported as 100.5 ± 4.8%; the “%Stability recoveries (Mean ± SD), Long-term 40 days (−80 °C)” value came to 109.3 ± 4.7%; the “%Stability recoveries (Mean ± SD), Auto-sampler 27 h (18 °C)” value is listed as 103.2 ± 3.6%. Moreover, the “Stability accuracy” value in data set [4] is 86.6–113.2%.
As to `NC(=O)c1cnccn1` [PZA, pyrazinamide], the exposure (AUC) came out at 1970 ± 298 µg·h/mL in data set [3] (setting [5]), 50.2 ± 7.6 µg·h/mL in data set [3] (setting [6]) and 1080 ± 187 µg·h/mL in data set [3] (Medium Dose (standard dose)). Moreover, the AUC(0-inf) turned out to be 1970 ± 298 µg·h/mL in data set [3] (setting [5]), 50.2 ± 7.6 µg·h/mL in data set [3] (setting [6]) and 1080 ± 188 µg·h/mL in data set [3] (Medium Dose (standard dose)). For the same compound, the highest concentration (Cmax) in data set [3] (setting [5]) was 241000 ± 19200 ng/mL; in data set [3] (setting [6]), 57000 ± 11900 ng/mL; in data set [3] (Medium Dose (standard dose)), 125000 ± 6700 ng/mL. Moreover, the values for the half-life in data set [3] (setting [7]), in data set [3] (setting [8]) and in data set [3] (setting [9]) were 2.62 ± 0.1 h, 2.82 ± 0.08 h and 2.7 ± 0.21 h, respectively. Further, the Tmax in data set [3] (setting [5]) was determined as 1.33 ± 0.26 h; in data set [3] (setting [6]), 1.13 ± 0.54 h; in data set [3] (setting [10]) it was 1.04 ± 0.6 h. In addition, the “%Stability recoveries (Mean ± SD), Freeze-thaw (−80 °C)” value in data set [4] (HQC) is 98.6 ± 0.7%; in data set [4] (LQC) it was 106.3 ± 3.0%. The “%Stability recoveries (Mean ± SD), Bench-top 4 h (4 °C)” value in data set [4] (HQC) is listed as 95.4 ± 2.5%; in data set [4] (LQC), 95.2 ± 3.4%. Besides, the “%Stability recoveries (Mean ± SD), Long-term 40 days (−80 °C)” value worked out at 88.6 ± 0.9% in data set [4] (HQC) and 97.9 ± 2.0% in data set [4] (LQC). Also, the “%Stability recoveries (Mean ± SD), Auto-sampler 27 h (18 °C)” value stood at 102.5 ± 3.3% in data set [4] (HQC) and 101.1 ± 1.6% in data set [4] (LQC). The “Stability accuracy” value in data set [4] is 86.6–113.2%.
Consider `CC(C)/N=c1\cc2n(-c3ccc(Cl)cc3)c3ccccc3nc-2cc1Nc1ccc(Cl)cc1` [CFZ, clofazimine], for which, in the data set “in vivo”, the Tmax is 3.17 ± 0.98 h. In data set [3] (setting [5]), the AUC is 0.143 ± 0.0371 µg·h/mL, the total exposure AUC(0-inf) was determined as 0.147 ± 0.0374 µg·h/mL and the maximum concentration (Cmax) came to 21.6 ± 7.32 ng/mL. Further, in data set [3] (setting [6]), the exposure (AUC) was 0.0175 ± 0.00967 µg·h/mL, the area under the curve AUC(0-inf) was found to be 0.0238 ± 0.0118 µg·h/mL and the Cmax came to 3.69 ± 1.32 ng/mL. In data set [3] (Medium Dose (standard dose)), the area under the curve (AUC) was 0.0422 ± 0.0177 µg·h/mL, the area under the curve AUC(0-inf) worked out at 0.0531 ± 0.0221 µg·h/mL and the maximum concentration (Cmax) stood at 7.24 ± 2.58 ng/mL. In addition, in data set [3] (setting [7]), the half-life is 3.63 ± 1.49 h. Further, the half-life in data set [3] (setting [8]) is 3.41 ± 1.31 h. For the same compound, the half-life in data set [3] (setting [9]) is 4.03 ± 1.16 h. Further, in data set [4] (HQC), the “%Stability recoveries (Mean ± SD), Freeze-thaw (−80 °C)” value is listed as 102.8 ± 2.3%; the “%Stability recoveries (Mean ± SD), Bench-top 4 h (4 °C)” value was found to be 96.1 ± 2.0%; the “%Stability recoveries (Mean ± SD), Long-term 40 days (−80 °C)” value was determined as 98.5 ± 2.3%; the “%Stability recoveries (Mean ± SD), Auto-sampler 27 h (18 °C)” value turned out to be 103.3 ± 1.3%. Besides, in data set [4] (LQC), the “%Stability recoveries (Mean ± SD), Freeze-thaw (−80 °C)” value was 113.2 ± 3.8%; the “%Stability recoveries (Mean ± SD), Bench-top 4 h (4 °C)” value was found to be 92.5 ± 4.6%; the “%Stability recoveries (Mean ± SD), Long-term 40 days (−80 °C)” value was 91.3 ± 1.0%; the “%Stability recoveries (Mean ± SD), Auto-sampler 27 h (18 °C)” value was 95.3 ± 8.6%. Also, the “Stability accuracy” value in data set [4] is listed as 86.6–113.2%.
